Experimental data: US20030154517A1, “Efficiency agrobacterium-mediated wheat transformation method” (priority 2001, published 2003)
“And” between values parts separate entries of the source, which are not always exact repeats. Equal values may be shown once. Read-outs that look alike come from different tables or passages of the source.

Assays:
[1] = system: immature embryos of wheat (Triticum aestivum L) cv Bobwhite; assay: Agrobacterium-mediated wheat transformation, glyphosate selection (transformation efficiency); type: cell-based; conditions: for Over all % TE / Total Ind. Events: six experiments; for Transgenic #: Expt. 309 and Expt. 314
[2] = system: wheat callus cultures; conditions: for 1 shoot/callus / 2 shoots/callus / 3 shoots/callus / 4 shoots/callus / Regenerable callus, # / Regenerable callus, % / Shoots, #: no glyphosate; for Shoots, #: two experiments
Procedure: Five treatments were done: 1) control (0.1 μM Cu as in MS medium) without additional copper; 2) 2 μM copper, applied at delay and selection for 2 weeks total; 3) 2 μM Cu at 1st regeneration for 2 weeks; 4) 2 μM Cu at 2nd regeneration for 2 or more weeks; and 5) 2 μM Cu constantly present at all of these stages.

[3] = system: immature embryos of wheat; assay: Agrobacterium-mediated wheat transformation, nptII (G418/kanamycin) selection (transformation efficiency); type: cell-based, Triticum aestivum L
From the text: Immature embryos of wheat (Triticum aestivum L) cv Bobwhite were isolated from the immature caryopsis (wheat spikelets) 12-15 days after pollination, and cultured on CM4C (Table 2) for 1-8 days, most typically for 4-6. The embryos without embryogenic callus were selected for Agrobacterium inoculation.
A disarmed Agrobacterium strain C58 (ABI) harboring a binary vector was used for all the experiments. […] The Agrobacterium cells were resuspended in the inoculation medium and the density was adjusted to an OD660 of 1. […] An equal amount of the Agrobacterium cell suspension was added such that the final concentration of Agrobacterium cells was an OD660 of 0.5. In most experiments, pluronic F68 was added to the inoculation mixture at a final concentration of 0.01%. The ratio between the Agrobacterium and immature embryos (IEs) was about 10 mL: 20-200 IEs. The conditions for inoculation were temperatures from about 23° C.-26° C. with a duration from about 5-60 minutes.
After the inoculation period, the remaining Agrobacterium cells were removed from the explants by using the in-house vacuum equipment. A piece of sterile Whatman No. 1 filter paper (to fit the size of the petri plate) was placed in each of 60×15 or 60×20 mm petri dishes without additional liquid or agar-supplemented media. Two hundred microliters of sterile water was placed in the middle of the filter paper. After 2-3 minutes, the inoculated immature embryos were placed in the plates. Usually, 20-50 explants are grouped as one stack (about 1 cm in size and 60-80 mg/stack), with 4-5 stacks on each plate. The plates were immediately parafilmed and then co-cultivated in the dark at 24° C.-26° C. for 2-3 days.
For nptII selection, immature embryos were isolated, precultured, inoculated, and co-cultured as previously described. After the 3-day co-culture, embryos were transferred to delay culture (solid CM4C2D) media (CM4C media as in Table 2 with 2 mg/L 2,4-D) with 500 mg/L carbenicillin for 7 days in the dark at 25° C. Selection was done in liquid CM4C media (as in Table 2 without the Phytagel) with 100 mg/L carbenicillin and 20 mg/L G418 on a support for 7 days in the dark followed by 7 days in the light (16 hr photoperiod), at 25° C. The calli were then transferred to liquid MMS0.2C media (as in Table 2 without the gelling agent) with 100 mg/L carbenicillin and 25 mg/L G418 on a support for 2 weeks at 25° C. with a 16 hr photoperiod. After 2 weeks, the calli were transferred to liquid MMSOC media (as in Table 2 without the gelling agent) with 100 mg/L carbenicillin and 25 mg/L G418 on a support for 2 to 4 weeks at 25° C. with a 16 hr photoperiod. Plantlets were transferred to solid MMSOC media with 100 mg/L carbenicillin and 25 mg/L G418 in sundae cups for 1 to 4 weeks at 25° C. with a 16 hr photoperiod.

[4] = Table 16: 250 μM CuSO4 in MMS0C
[5] = Table 16: 500 μM CuSO4 in MMS0C
[6] = Table 16: 750 μM CuSO4 in MMS0C
[7] = Table 16: 1000 μM CuSO4 in MMS0C
[8] = Table 16: 1500 μM CuSO4 in MMS0C
[9] = Table 16: 2000 μM CuSO4 in MMS0C
[10] = Table 16: 3000 μM CuSO4 in MMS0C
[11] = 2 μM Cu at 2nd Reg. (MMS0C), 2 w.

Structure (SMILES): O=S(=O)([O-])[O-].[Cu+2] [CuSO4, copper sulfate]
- improvement in TE (×) ([1]; 1.0 μM copper sulfate in MMS0C, experiment 309): 2.5 ×
- improvement in TE (×) ([1]; 1.0 μM copper sulfate in MMS0C, experiment 314): ~4 ×
- improvement in TE (×) ([1]; 2.0 μM copper sulfate in MMS0C, experiment 309): 3.5 ×
- improvement in TE (×) ([1]; 2.0 μM copper sulfate in MMS0C, experiment 314): ~10 ×
- TE % ([1]; CuSO4 2 μM, initial 14 days (2 weeks) of last regeneration stage (MMS0C), per experiment and Total/average of twelve, listed as Cu): 16.6%
- % TE ([1]; Table 14: 2 μM Cu in MMS0C, per experiment and Total, listed as Cu): 11.4% and 15.1% and 9.4%
- % TE ([1]; Table 14: 20 μM Cu in MMS0C, per experiment and Total, listed as Cu): 17.4% and 20.3% and 15.9%
- Over all % TE ([1]; Table 15: 20 μM CuSO4 in MMS0C): 17.6%
- Total Ind. Events ([1]; Table 15: 20 μM CuSO4 in MMS0C): 103
- % TE ([1]; Table 15: 40 μM CuSO4 in MMS0C, experiments 292, 293, 295, 296, 297, 301): 14.0% and 13.9% and 22.6% and 21.8% and 20.7% and 19.6%
- Over all % TE ([1]; Table 15: 40 μM CuSO4 in MMS0C): 18.6%
- Total Ind. Events ([1]; Table 15: 40 μM CuSO4 in MMS0C): 109
- Over all % TE ([1]; Table 15: 80 μM CuSO4 in MMS0C): 16.6%
- Total Ind. Events ([1]; Table 15: 80 μM CuSO4 in MMS0C): 98
- % TE ([1]; Table 16: 40 μM CuSO4 in MMS0C): 17.5%
- Transgenics ([1]; Table 16: 40 μM CuSO4 in MMS0C): 14
- % TE [1, 4]: 20%
- Transgenics [1, 4]: 16
- % TE [1, 5]: 24% and 23.75%
- Transgenics [1, 5]: 19
- % TE [1, 6]: 15.0%
- Transgenics [1, 6]: 12
- % TE [1, 7]: 10.0%
- Transgenics [1, 7]: 8
- % TE [1, 8]: 13.8%
- Transgenics [1, 8]: 11
- % TE [1, 9]: 11.1%
- Transgenics [1, 9]: 4
- % TE [1, 10]: 5.6%
- Transgenics [1, 10]: 2
- % TE ([1]; Table 17: 0.25 μM CuSO4 in MMS0C, both experiments): 4.8%
- Transgenic # ([1]; Table 17: 0.5 μM CuSO4 in MMS0C): 4 and 5
- % TE ([1]; Table 17: 0.5 μM CuSO4 in MMS0C, both experiments): 4.3%
- Transgenic # ([1]; Table 17: 1.0 μM CuSO4 in MMS0C): 10 and 11
- % TE ([1]; Table 17: 1.0 μM CuSO4 in MMS0C, both experiments): 10.1%
- % TE ([1]; Table 17: 2.0 μM CuSO4 in MMS0C, both experiments): 20.7%
- TE, average ([1]; copper sulfate from 20 to 80 μM inclusive in MMS0C, Table 15): 17.6%
- 1 shoot/callus ([2]; 2 μM Cu at 1st Reg., 2 w.): 11.8
- 2 shoots/callus ([2]; 2 μM Cu at 1st Reg., 2 w.): 9.3
- 3 shoots/callus ([2]; 2 μM Cu at 1st Reg., 2 w.): 3.3
- 4 shoots/callus ([2]; 2 μM Cu at 1st Reg., 2 w.): 1.3
- Regenerable callus, # ([2]; 2 μM Cu at 1st Reg., 2 w.): 30.5
- Regenerable callus, % ([2]; 2 μM Cu at 1st Reg., 2 w.): 61%
- Shoots, # ([2]; 2 μM Cu at 1st Reg., 2 w.): 44
- effect on regeneration ([2]; 2 μM Cu at 1st regeneration stage): very little or no effect
- Regenerable callus, # [2, 11]: 40
- Regenerable callus, % [2, 11]: 80%
- Shoots, # [2, 11]: 80.5
- 2 shoots/callus ([2]; 2 μM Cu at 2nd Reg., 2 w.): 12.5
- 3 shoots/callus ([2]; 2 μM Cu at 2nd Reg., 2 w.): 9.8
- 4 shoots/callus ([2]; 2 μM Cu at 2nd Reg., 2 w.): 4.3
- effect on regeneration ([2]; 2 μM Cu at 2nd regeneration stage): most significant increase in regeneration
- 1 shoot/callus ([2]; 2 μM Cu at Delay/Sel., 2 w.): 14.3
- 2 shoots/callus ([2]; 2 μM Cu at Delay/Sel., 2 w.): 8.5
- 3 shoots/callus ([2]; 2 μM Cu at Delay/Sel., 2 w.): 7.8
- 4 shoots/callus ([2]; 2 μM Cu at Delay/Sel., 2 w.): 0.5
- Regenerable callus, # ([2]; 2 μM Cu at Delay/Sel., 2 w.): 35.6
- Regenerable callus, % ([2]; 2 μM Cu at Delay/Sel., 2 w.): 71%
- Shoots, # ([2]; 2 μM Cu at Delay/Sel., 2 w.): 57.5
- 1 shoot/callus ([2]; 2 μM Cu at all stages, 6 w.): 9
- 2 shoots/callus ([2]; 2 μM Cu at all stages, 6 w.): 11.5
- 3 shoots/callus ([2]; 2 μM Cu at all stages, 6 w.): 2.5
- 4 shoots/callus ([2]; 2 μM Cu at all stages, 6 w.): 0.5
- Regenerable callus, # ([2]; 2 μM Cu at all stages, 6 w.): 30.5
- Regenerable callus, % ([2]; 2 μM Cu at all stages, 6 w.): 61%
- Shoots, # ([2]; 2 μM Cu at all stages, 6 w.): 37
- effect on regeneration ([2]; 2 μM Cu at delay and selection stage): Some improvement
- effect on regeneration ([2]; 2 μM Cu present at all stages): No improvement
- Independent transgenic events/explants [3]: 37/220 and 63/228 and 48/211 and 46/275 and 53/225
- % TE ([3]; 2 μM copper sulfate in MMSOC, nptII liquid system, per experiment and Totals, listed as Copper sulfate): 3.72% and 2.16% and 0.57% and 9.43% and 9.14% and 4.51% and 1.56%
- % TE ([3]; 2 μM copper sulfate in MMSOC, nptII liquid system, per experiment and Totals, listed as copper): 4.5%
- % TE ([3]; 20 μM copper sulfate in MMSOC, nptII liquid system, per experiment and Totals): 7.2%
- % TE ([3]; Table 19: compound at 2 μM in second regeneration stage (MMSOC media)): 16.8%
- % TE ([3]; Table 19: compound at 20 μM in second regeneration stage (MMSOC media)): 27.6% and 30.6% and 22.7% and 16.7% and 23.6%
- % TE ([3]; Table 19: compound at 20 μM in second regeneration stage (MMSOC media), listed as copper sulfate): 27.6% and 16.7% and 22.7%
